Here are results for 9 molecules from paper PMC9078123, “Ahmpatinin ^iBu, a new HIV-1 protease inhibitor, from Streptomyces sp. CPCC 202950” (RSC Advances, 2018).

For orientation: IC50 means the midpoint of a concentration-inhibition curve. A high value points to lower potency.

Square brackets hold non-standard residues; d marks the D form. Peptide text beside a SMILES is read from it. * marks the point of attachment. X1 = COc1ccc(C[C@H](N*)[C@@H](O)CC(=O)O)cc1; Sta = CC(C)C[C@H](N)[C@@H](O)CC(=O)O; Isobutyryl = CC(C)C(=O)*; Propionyl = CCC(=O)*

The target in data set [1] is T1, HIV-1 protease (Human immunodeficiency virus type 1 group M subtype B, UniProt P04585).
T1 construct: HIV-1 PR is a 22 kDa dimeric aspartyl protease
As to the kind of experiment: Inhibition of HIV-1 protease activity. It is filed as biochemical. From the text: Analysis of the inhibition of HIV-1 protease activity

The nature of data set [2]: Cytotoxic activity assay, Hela. The conditions noted are these: human, HeLa cervical cancer cells.
Protocol: (§1) Cervical cancer (Hela), hepatocellular carcinoma (HepG2), and human osteosarcoma (U2OS) cell lines were obtained from the National Infrastructure of Cell Line Resource (Beijing, China).
(§2) This was measured using the previously described protocol.[34]
A short description of data set [3]: Cytotoxic activity assay, HepG2. The conditions noted are these: human, HepG2 hepatocellular carcinoma cells.
Protocol: as §1, §2
Data set [4] in a line: Cytotoxic activity assay, U2OS. The conditions noted are these: human, U2OS osteosarcoma cells.
Protocol: as §1, §2

Regarding `COc1ccc(C[C@H](NC(=O)[C@H](C)NC(=O)C[C@H](O)[C@H](CC(C)C)NC(=O)[C@@H](NC(=O)[C@@H](NC(=O)C(C)C)C(C)C)C(C)C)[C@@H](O)CC(=O)O)cc1` [Compound 1, ^iBu-L-Val^1-L-Val^2-(3S,4S)-Sta-L-Ala-(3S,4S)-Ahmppa] (Isobutyryl-VV[Sta]A-X1), in data set [1], half-maximal inhibition (IC50) was put at 1.79 nM.

As for `CC(C)C[C@H](NC(=O)[C@@H](NC(=O)[C@@H](NC(=O)C(C)C)C(C)C)C(C)C)[C@@H](O)CC(=O)N[C@@H](C)C(=O)O` [Compound 2, ^iBu-L-Val^1-L-Val^2-(3S,4S)-Sta-L-Ala] (Isobutyryl-VV[Sta]A-OH), the IC50 in data set [1] stood at 3190 nM.

For `CC(C)CCCCC(=O)N[C@H]1CCN(CC(=O)O)C1=O` [Compound 3, (−)-(S)-2-[3-(6-methylheptanamido)-2-oxopyrrolidin-1-yl]acetic acid], the IC50 in data set [1] is over 10000 nM. In data set [1] (preliminary in vitro assay), the “inhibitory activity against HIV-1 protease (in words)” value is “inactive”.

With `CCC(=O)N[C@H](C(=O)N[C@H](C(=O)N[C@@H](CC(C)C)[C@@H](O)CC(=O)N[C@@H](C)C(=O)N[C@@H](CC(C)C)[C@@H](O)CC(=O)O)C(C)C)C(C)C` [Compound 5, pepstatin Pr] (Propionyl-VV[Sta]A[Sta]-OH), in data set [1], the midpoint of inhibition, the IC50, lay at 22.3 nM.

Turning to `CC(C)C[C@H](NC(=O)[C@H](C)NC(=O)C[C@H](O)[C@H](CC(C)C)NC(=O)[C@@H](NC(=O)[C@@H](NC(=O)C(C)C)C(C)C)C(C)C)[C@@H](O)CC(=O)O` [Compound 6, pepsinostreptin] (Isobutyryl-VV[Sta]A[Sta]-OH), in data set [1], the IC50 came out at 9.9 nM.

`COC(=O)C[C@H](O)[C@H](CC(C)C)NC(=O)[C@H](C)NC(=O)C[C@H](O)[C@H](CC(C)C)NC(=O)[C@@H](NC(=O)[C@@H](NC(C)=O)C(C)C)C(C)C` [Compound 7, pepstatin Ac methyl ester] (Ac-VV[Sta]A[Sta]-OMe) registered a 50% inhibitory concentration (IC50) in data set [1] of 203 nM.

Turning to `CCC(=O)N[C@H](C(=O)N[C@H](C(=O)N[C@@H](CC(C)C)[C@@H](O)CC(=O)N[C@@H](C)C(=O)N[C@@H](CC(C)C)[C@@H](O)CC(=O)OC)C(C)C)C(C)C` [Compound 8, pepstatin Pr methyl ester] (Propionyl-VV[Sta]A[Sta]-OMe), in data set [1], 139 nM corresponded to half-maximal inhibition (IC50).

`COC(=O)C[C@H](O)[C@H](CC(C)C)NC(=O)[C@H](C)NC(=O)C[C@H](O)[C@H](CC(C)C)NC(=O)[C@@H](NC(=O)[C@@H](NC(=O)C(C)C)C(C)C)C(C)C` [Compound 9, pepsinostreptin methyl ester] (Isobutyryl-VV[Sta]A[Sta]-OMe): the IC50 in data set [1] is 782 nM.

Consider `COc1cccc2c1C(=O)c1c(O)c3c(c(O)c1C2=O)C[C@@](O)(C(=O)CO)C[C@@H]3O[C@H]1C[C@H](N)[C@H](O)[C@H](C)O1` [doxorubicin], for which the IC50 in data set [2] was 1420 nM; in data set [3], 1560 nM; in data set [4], 2780 nM.
